In ChEMBL document CHEMBL1821550 (Bioorg Med Chem Lett, 2011) one finds logD data, which are given here for 70 compounds.

This data set in a line: physchem. To be noted: octanol/water.

`COCC1CCCN1S(=O)(=O)c1ccc(-c2ccc(CCN3CCC[C@H]3C)cc2)cc1` (stereo not given in full): the logD is 2.5.

Turning to `CCOC(=N)c1ccc(-c2ccc3cc(CCN4CCC[C@H]4C)ccc3n2)s1`, the logD is 4.1.

Compound `COC1CCN(S(=O)(=O)c2ccc(-c3ccc(CCN4CCC[C@H]4C)cc3)cc2)CC1` yielded a logD of 2.

For `c1ncc(-c2ccc(OCCCN3CCCCC3)cc2)o1`, the logD came to 1.1.

The compound `CCc1nc2ccccc2c(=O)n1-c1ccc(OCCCN2CCCC2)cc1` displayed a log distribution coefficient (logD) of 2.4.

For `CC(C)N1CCN(C(=O)N2CCC(NC(=O)C3CCCC3)CC2)CC1`, the logD stood at 0.2.

For `O=C(C1CC(Oc2ccc(F)cc2)CN1)N1CCCN(C2CCC2)CC1` (stereo not given), the logD came to 0.2.

`c1ccc([C@@H]2Sc3ccccc3O[C@@H]2c2ccc(OCCCN3CCCC3)cc2)cc1` yielded a logD of 4.5.

`c1cc(N2CCCCC2)ccc1OCCCN1CCCCC1`: the logD worked out at 1.7.

`CC(C)N1CCN(C(=O)N2CCC(Cc3ccccc3)CC2)CC1` came in with a logD of 2.

`c1ncc(-c2cc3sc(N4CCC(N5CCCCC5)CC4)nc3cn2)cn1` gave a logD of 0.5.

For `Cc1c(-c2ccc3cc(CCN4CCC[C@H]4C)ccc3n2)cnn1-c1ccc(Cl)c(Cl)c1`, the logD amounted to 5.4.

`Cn1nccc1-c1ccc(OCCCN2CCCCC2)cc1`: the logD amounted to 1.8.

With `CC(C)N1CCN(C(=O)N2CC=C(c3ccccc3)CC2)CC1`, the logD turned out to be 1.4.

`Cc1cc2ncc(-c3ccc4cc(CCN5CCC[C@H]5C)ccc4n3)c(C)n2n1` registered a logD of 2.5.

Compound `O=C(/C=C/c1ccc(C(F)(F)F)cc1)N1CCC[C@H]1CN1CCCC1` yielded a logD of 2.4. This logD and that of the compound before are within 0.2 log units of each other.

`C=C(N(C)Cc1ccc(-c2ccccc2)cc1)N1CCN(C(C)C)CC1`: the logD stood at 1.8.

`Cc1ccc(-c2ccc3cc(CCN4CCC[C@H]4C)ccc3n2)c(C)n1` yielded a logD of 3.1.

As to `Cc1nc(C)c(-c2ccc3cc(CCN4CCCC4C)ccc3n2)cc1C#N` (stereo not given), the logD amounted to 2.9.

Compound `C[C@@H]1CCCN1CCc1ccc2nc(-c3cccnc3)ccc2c1` returned a logD of 2.5.

Compound `Fc1ncccc1-c1cnc2nc(N3CCC(N4CCCCC4)CC3)sc2c1` yielded a logD of 1.5.

`c1cc(-c2ccc3c(c2)OCO3)ccc1OCCCN1CCCCC1` gave a logD of 2.7.

Consider `COc1ccc2c(=O)n(-c3ccc(OCCCN4CCCC4)cc3)c(C)nc2c1`, for which the log distribution coefficient (logD) is 1.7.

Take `Cc1nc2cccc(C(F)(F)F)c2c(=O)n1-c1ccc(OCCCN2CCCC2)cc1` [MK-0249]: the logD was 2.6.

Consider `Cc1n[nH]c(C)c1-c1ccc2cc(CCN3CCC[C@H]3C)ccc2n1`, for which the logD worked out at 2.5.

Compound `COc1cccc2nc(C)n(-c3ccc(OCCCN4CCCC4)cc3)c(=O)c12` registered a logD of 1.7.

In turn, `C[C@@H]1CCCN1CCc1ccc2nc(-c3ccccn3)ccc2c1` had a logD of 2.9.

Compound `C[C@@H]1CCCN1CCc1ccc2nc(C3=NCCS3)ccc2c1` had a logD of 2.7.

As for `c1cc(C2CCCCC2)ccc1OCCCN1CCCCC1`, the logD amounted to 3.6.

Compound `O=c1c2ccccc2ncn1-c1ccc(OCCCN2CCCC2)cc1` registered a logD of 1.6.

For `COc1cccc2nc(-c3ccc(OC4CCN(C5CCC5)CC4)cc3)n(C)c(=O)c12`, the logD was 2.2.

`Nc1cnc(-c2cc3sc(N4CCC(N5CCCCC5)CC4)nc3cn2)cn1` displayed a logD of 0.2.

With `Cn1c(-c2ccc(OC3CCN(C4CCC4)CC3)cc2)nc2ccccc2c1=O`, the logD came to 2.2.

In turn, `Cc1nc2c(F)cccc2c(=O)n1-c1ccc(OCCCN2CCCC2)cc1` gave a logD of 1.9.

On to `COc1cccc2c1OC(c1ccc(OC3CCN(C4CCC4)CC3)cc1)C(C)S2(=O)=O` (stereo not given), for which the logD was 3.3.

Consider `N#Cc1ccc(OC2CNC(C(=O)N3CCCN(C4CCCC4)CC3)C2)cc1` (stereo not given), for which the logD was found to be 0.6.

`C[C@@H]1CCCN1CCc1ccc2nc(-c3ccn4ncnc4n3)ccc2c1` showed a logD of 2.5.

Compound `CC1CCN(c2ccc3cc(CCN4CCC[C@H]4C)ccc3n2)CC1` returned a logD of 2.9.

The compound `C[C@@H]1CCCN1CCc1ccc2nc(-c3ccc4nccnc4c3)ccc2c1` displayed a logD of 3.1.

Take `C[C@@H]1CCCN1CCc1ccc(-c2ccc(S(=O)(=O)N3CCCCC3)cc2)cc1`: the logD is 3.1.

For `CC1CCCN1CCc1ccc2nc(-c3ccsc3)ccc2c1` (stereo not given), the logD was 3.3.

`Cc1cccc2nc(C)n(-c3ccc(OCCCN4CCCC4)cc3)c(=O)c12` displayed a logD of 2.2.

Regarding `CC(C)N1CCN(C(=O)N2Cc3ccccc3C2)CC1`, the logD amounted to 0.7.

Regarding `Cc1ccc(-c2cc3sc(N4CCC(N5CCCCC5)CC4)nc3cn2)cn1`, the pH-dependent lipophilicity (logD) worked out at 1.4.

Consider `Cc1ccc2cc(CCN3CCC[C@H]3C)ccc2n1`, for which the logD came out at 2.

The compound `O=C(C1CC(Oc2cccc(Cl)c2)CN1)N1CCCN(C2CCC2)CC1` (stereo not given) came in with a logD of 0.6.

The compound `O=c1ccc(-c2cnc3nc(N4CCC(N5CCCCC5)CC4)sc3c2)c[nH]1` returned a logD of 1.2.

With `C[C@@H]1CCCN1CCc1ccc2nc(-c3ccc(N4CCCCC4)cc3)ccc2c1`, the logD is 3.1.

In the case of `Cn1c(-c2ccc(OC3CCN(C4CCC4)CC3)cc2)nc2c(Cl)cccc2c1=O`, the logD is 2.8.

With `Cc1ccc(-c2ccc3cc(CCN4CCC[C@H]4C)ccc3n2)cn1`, the logD was 2.8.

`COC(=O)N1CC(Oc2cccc(F)c2)CC1C(=O)N1CCCN(C2CCC2)CC1` (stereo not given) showed a logD of 1.8.

Compound `Cc1nc2ncccc2cc1-c1ccc2cc(CCN3CCC[C@H]3C)ccc2n1` came in with a logD of 3.1.

For the compound `CC[C@@H]1Sc2ccccc2O[C@@H]1c1ccc(OCCCN2CCCC2)cc1`, the logD came out at 3.8.

Turning to `COc1cc2c(cc1OC)CN(C(=O)N1CCN(C(C)C)CC1)CC2`, the logD was determined as 1.

As for `Cc1ccc(-c2ccc(-c3ccc4cc(CCN5CCC[C@H]5C)ccc4n3)s2)s1`, the logD came out at 5.5.

In turn, `C[C@@H]1CCCN1CCc1ccc(-c2ccc(S(=O)(=O)NCc3ccncc3)cc2)cc1` gave a logD of 2.4.

Turning to `Cc1c(-c2ccc3cc(CCN4CCC[C@H]4C)ccc3n2)cnn1C`, the logD stood at 2.5.

`C[C@@H]1CCCN1CCc1ccc2nc(-c3ccn[nH]3)ccc2c1` showed a logD of 2.4. The logD values of the last two compounds are within 0.2 log units of each other.

`CC1CCCN1CCc1ccc2nc(-c3ccoc3)ccc2c1` (stereo not given): the logD was 2.7.

In turn, `COc1cccc2c1OC(c1ccc(OCCCN3CCC[C@H]3C)cc1)C(C)S2(=O)=O` (stereo not given in full) had a logD of 2.6. This logD and that of the compound before are within 0.2 log units of each other.

Regarding `C[C@@H]1CCCN1CCc1ccc2nc(-c3ccc(C#N)s3)ccc2c1`, the logD was found to be 3.8.

Turning to `C[C@@H]1CCCN1CCc1ccc2nc(-c3cn4c(n3)SCC4)ccc2c1`, the logD is 3.1.

Compound `c1coc(-c2ccc(OCCCN3CCCCC3)cc2)c1` returned a logD of 2.3.

In turn, `Cc1onc(-c2ccc(Cl)cc2)c1-c1ccc2cc(CCN3CCC[C@H]3C)ccc2n1` registered a pH-dependent lipophilicity (logD) of 4.9.

For `C1=C(c2ccc(OCCCN3CCCCC3)cc2)CCC1`, the logD turned out to be 2.9.

On to `C[C@@H]1CCCN1CCc1ccc2nc(-c3ccc(-n4ccc(=O)cc4)cc3)ccc2c1`, for which the logD came to 3.4.

Take `C[C@@H]1CCCN1CCc1ccc2nc(-c3csc(-c4ccc(OCC(F)(F)F)nc4)n3)ccc2c1`: the log distribution coefficient (logD) came out at 4.8.

On to `O=C(NCc1ccc(C(F)(F)F)cc1)N1CCC[C@H]1CN1CCCC1`, for which the logD turned out to be 1.8.

On to `CN(Cc1ccc(-c2ccccc2)cc1)C(=O)N1CCC[C@H]1CN1CCCC1`, for which the logD stood at 2.6.

In turn, `O=C(N1Cc2ccccc2C1)N1CCC[C@H]1CN1CCCC1` displayed a logD of 0.9.
